A melting point compilation (Tetko et al.; mined from patent text by program, amines drawn as free bases though some values may be those of a salt)

| Structure (SMILES) | melting point |
| --- | --- |
| N#C[C@@H]1C[C@@H]2C[C@@H]2N1C(=O)[C@@H](NC(=O)OCc1ccccc1)C12CC3CC(CC(O)(C3)C1)C2 | 105 to 106 °C |
| CCc1nn(C2CCCC2)c2cc(C(=O)Nc3c(Cl)ncnc3Cl)ccc12 | 171 to 172 °C |
| CCC(=O)Nc1ccc(OCc2nc3ccccc3s2)cc1 | 182 °C |
| CCn1c(C(C)C)cc(-c2ccc(F)cc2)c1-c1ccccc1 | 110 °C |
| CC(C)(C)OC(=O)NC(COCc1ccccc1)C(=O)N1CCOCC1 (centres undefined) | 87 to 88 °C |
| CCN(CC)c1ccccc1C(=O)O | 122 to 123 °C |
| O=C(Nc1cc(F)c(-c2ccncc2)c(F)c1)OCc1ccccc1 | 185 to 186 °C |
| Nc1ccc2c(c1)OCCNC2=O | 151 to 152 °C |
| CNC(=O)Nc1cc(C2(C)CC2)on1 | 144 to 147 °C |
| COc1cc(C(O)CS(C)(=O)=O)cc(OC)c1N(C)C (centres undefined) | 147 to 148 °C |
| CCCCCCCCCCCCCCCCCC1CC(O)C(CC)C(=O)O1 (racemic) | 101 to 102 °C |
| O=C(O)c1cc(N=Nc2cc(C(=O)O)cc(SCc3ccccc3)c2C(=O)c2ccccc2)c(C(=O)c2ccccc2)c(SCc2ccccc2)c1 | 218 to 220 °C |
| FC(F)(F)c1n[nH]c(C(F)(F)F)n1 | 74 to 75 °C |
| O=c1[nH]c2ncc(Br)cc2o1 | 229 to 230 °C |
| CCOC(=O)C1=C(C)NC(C)=C(C(=O)OCCN2CCN(C(c3ccc(C)cc3)c3ccc(C)cc3)CC2)C1c1ccc(C#N)cc1 (centres undefined) | 93 to 96 °C |
| COC(C)c1cc2c(=O)n(NS(C)(=O)=O)c(=O)[nH]c2cc1C(F)(F)F (centres undefined) | 233 to 236 °C |
| CN(C(=O)On1cccn1)c1ccccc1 | 63 to 67 °C |
| OCc1cc2ccc3ccccc3c2o1 | 106 to 107 °C |
| CN1CCC(n2cc(C3=C(c4cn(C)c5ccccc45)C(=O)NC3=O)c3ccccc32)CC1 | 316 to 318 °C |
| Nc1sc2c(c1C(=O)c1ccc(Cl)s1)CCCC2 | 173 to 175 °C |
| COc1c(NC(=O)Nc2ccc(Oc3ccoc(=O)c3)c3ccccc23)cc(C(C)(C)C)cc1NS(C)(=O)=O | 185 to 187 °C |
| CONC(=N)c1ccc(-c2ccc(-c3ccc(-c4ccc(C(=N)NOC)cc4)o3)o2)cc1 | 258 to 259 °C |

| Structure (SMILES) | melting point |
| --- | --- |
| CCn1cc(C(=O)O)c(=O)c2cc(F)c(N3CCN4CCC3C4)nc21 (centres undefined) | 228 to 229 °C |
| CCOC(=O)c1c(C)[nH]c2ccc(OC[C@@H](O)CN)cc12 | 66 to 68 °C |
| CC(C)(C)c1cc(N)n(-c2c(Cl)cc(C(F)(F)F)cc2Cl)n1 | 110 to 120 °C |
| CCCS(=O)(=O)c1cccnc1S(N)(=O)=O | 153 to 157 °C |
| O=C(Nc1cc(F)c(-c2cccnc2)c(F)c1)OCc1ccccc1 | 188 to 190 °C |
| CS(=O)(=O)O[C@H]1C[C@@H](C(=O)OCc2ccccc2)N(S(C)(=O)=O)C1 | 91 to 92 °C |
| O=C(OCc1ccccc1)N1CCc2c([nH]c3ccccc23)C1c1ccc2c(c1)OCO2 (centres undefined) | 98 to 101 °C |
| COc1ccc(C2=NN(C(=O)c3cccnc3)CC2)cc1 | 132 to 134 °C |
| CS(=O)(=O)Nc1ccccc1C(=O)C1CCCCC1 | 119 to 120 °C |
| Cc1cc(CC2(Cc3ccncc3)c3cccnc3-c3ncccc32)cc(C)n1 | > 240 °C |
| COC(=O)Cc1ccc(CNC(=O)C2Cc3ccccc3N2S(=O)(=O)c2ccc(-c3ccc(F)cc3Cl)cc2)cc1 (centres undefined) | 70 °C |
| CC1Cc2c(N3CCCC3CO)c(F)cc3c(=O)c(C(=O)O)cn1c23 (centres undefined) | 235 to 237 °C |
| CC1(C)Cc2ccoc2C(=O)N1 | 133 to 134 °C |
| CN1CCC(CC(=O)N2c3ccccc3NC(=O)c3ccccc32)CC1 | > 95 °C |
| O=CN1CCCN(C2=Nc3cc(Cl)ccc3Nc3ccccc32)CC1 | 152 to 155 °C |
| Cc1ccccc1C(=O)Nc1ccc(C(=O)N2CCS(=O)c3ccccc32)cc1 (centres undefined) | 240 to 241 °C |
| NC(=O)N(O)CCNC(=O)c1ccc(Oc2ccccc2)cc1 | 185 to 186 °C |
| CC(=O)N(O)Cc1ccccc1Nc1cccc(C)c1C | 93 to 98 °C |
| O=S(=O)(c1ccccc1)C1CCCC2(C1)OCCO2 (centres undefined) | 93 to 95 °C |
| CC(C)CNC(=O)Nc1c(C(=O)c2ccccc2)[nH]c2cc(Cl)ccc12 | 235 to 238 °C |
| Cc1cc2c(cc1C)C(C(=O)O)SCC2=O (single isomer, unassigned; (-)) | 177 to 178 °C |
| C=CC(O)c1ccccc1C#CC1C(O)C2CCN1CC2 (centres undefined) | 148 to 150 °C |

| Structure (SMILES) | melting point |
| --- | --- |
| Cc1c(CO)ncnc1N1CCCC1 | 112 to 114 °C |
| CSC(=S)c1cccc([N+](=O)[O-])c1 | 38 °C |
| COc1ccc(C(=O)Nc2ccncc2)c2c1[nH]c1ccccc12 | > 250 °C |
| COC(=O)c1cccc2c1ccn2S(C)(=O)=O | 102 to 104 °C |
| C=CCN(CC=C)C(=O)n1cnc(S(=O)C(C)C)n1 (centres undefined) | 32 to 34 °C |
| CC(=O)OC1CSC(Oc2cccnc2F)C(OC(C)=O)C1OC(C)=O (centres undefined) | 160 °C |
| COc1ccc(-n2nc(Sc3ccc(C)cc3C)c(C)c(C#N)c2=O)cc1 | 166 to 168 °C |
| O=C(Nc1ccc(-n2nc(C3CC3)cc2C2CC2)c(F)c1)c1cccc(F)c1F | 132 to 135 °C |
| CCOC(=O)NN=Cc1c[nH]c(C)n1 | 210 to 212 °C |
| Cc1cc(N2CCC3(CC2)OCCO3)c2cccc(Br)c2n1 | 156 to 158 °C |
| O=C1c2c(O)ccc(O)c2C(=O)c2c(NCCN3CCC(O)C3)ccc(NCCN3CCC(O)C3)c21 (centres undefined) | 197 to 199 °C |
| Cn1nnnc1-c1cnc2ccccc2c1O | 318 to 320 °C |
| CCc1c(N)c(C(N)=O)nn1C[C@H]1CCCN1C | 130 to 133 °C |
| COCCN(c1cccc2cc(-c3nccs3)[nH]c12)S(=O)(=O)c1cccs1 | 113 to 114 °C |
| O=C(Nc1ccc2[nH]c(=O)oc2c1)C(=O)N1CCC(Cc2ccc(F)cc2F)CC1 | 191 °C |
| FC(F)(F)c1cccc(C(Cl)(Cl)Cl)c1Cl | 32 to 33 °C |
| CCC(=O)N[C@@H](C)C(=O)N1CCC[C@H]1C(=O)NC1CCCCCCC1 | 142 to 143 °C |
| ON=C1CCc2c([nH]c3ccccc23)C1 | 196 °C |
| Nc1nc(Cc2ccc(OCc3ccccc3)cc2)nc2nc(-c3ccco3)nn12 | 220 to 222 °C |
| O=C(CCC[C@H](O)c1ccc(F)cc1)N1C(=O)OC[C@@H]1c1ccccc1 | 39.7 °C |
| Fc1ccc(-c2nc3c(c(=S)[nH]2)CCCC3)cc1 | 198 to 200 °C |
| COc1c(C)cc(C(=O)c2ccc([N+](=O)[O-])cc2)cc1C | 131 to 132 °C |

Next, values leading:

| melting point | Structure (SMILES) |
| --- | --- |
| 75 °C | CCCCOc1cc(/C=C(\OCC)C(=O)O)ccc1CCCc1ccc(OS(=O)(=O)CCCC)c(OC)c1 |
| 154 to 155 °C | COc1cccc(CC(=O)O)c1OCCn1cc(C(=O)NCc2ccc(Cl)cc2Cl)c(OC(C)C)n1 |
| 239 to 242 °C | CCCc1c(OCc2cc(Br)cn3c(=O)c(CCC(=O)O)cnc23)ccc(C(C)=O)c1O |
| 252 to 255 °C | CCOC(=O)c1ncc2[nH]c3ccc(C#N)cc3c2c1COC |
| 130 to 134 °C | Nc1nc(Cl)c2ncn(COCCOC(=O)c3ccccc3)c2n1 |
| 106 to 109 °C | CCCCCCCS(=O)(=O)c1nn2c(=O)c(OC)cnc2s1 |
| 231 to 232 °C | CCOc1ccc(-c2csc(-c3cccc(C(=O)O)c3)n2)cc1 |
| 240 to 242 °C | OCc1ccc2ncc(C(=S)NCc3ccc(Cl)cc3)c(O)c2c1 |
| 161 °C | COc1cc(C)c(C(=O)c2c(Cl)cccc2Cl)c(O)c1OC |
| 180 to 182 °C | CCOC(=O)c1cn(C)c2nc3cc(N4CCNC(c5ccc(N)cc5)C4)c(F)cc3cc2c1=O (racemic) |
| 259 °C | Cn1ccnc1NC(=O)c1c(C(F)(F)F)nc2c(C(F)(F)F)cccc2c1O |
| 142 °C | COc1cccc(OC)c1-c1ccc(C[C@H](NC(=O)c2c(Cl)cc(-c3nccs3)cc2Cl)C(=O)O)cc1 |
| 146 to 149 °C | CC1(C)CCc2cc(OCc3ccccc3)c(O)c([N+](=O)[O-])c2C1=O |
| 130 to 132 °C | CNC(=O)COC(=O)N1CCN(CCc2cc(-c3ccc(Cl)cc3)no2)CC1 |
| 107 to 108 °C | C#CCOCc1c(C)nc2c(OCc3ccccc3OC)cccn12 |
| 237 to 239 °C | CN1CC[C@@H](c2c(O)cc(O)c3c(=O)cc(-c4ccc(C#N)cc4Cl)oc23)[C@@H]1CO |
| 89 °C | CCCCNS(=O)(=O)c1cc(C(=O)CCl)ccc1Cl |

| melting point | Structure (SMILES) |
| --- | --- |
| 188 °C | COC(=O)CN1C(=O)c2ccc3ccccc3c2S1(=O)=O |
| 58 to 62 °C | Cc1cccc(-c2cc(C(=O)NCCCCCCCc3ccccc3)cc(-c3cccc(C)c3)c2OCC(=O)O)c1 |
| 265 to 266 °C | CCOC(=O)c1cccc2c(=O)cc(-c3ccc(OCc4ncc5ccccc5n4)cc3)oc12 |
| 79 to 81 °C | CCCc1c(OCCCCCCc2cccc(OCCCCCCCC(=O)O)c2CCC(=O)O)ccc2c1OCCC2=O |
| 168 to 169 °C | Cc1cc(OCc2ccc(-c3ccc(C(F)(F)F)cc3)nc2C)ccc1SCC(=O)O |
| 227 to 230 °C | CCCCc1ncc(/C=C(\Cc2cccs2)c2nnn[nH]2)n1Cc1ccc(-c2nnn[nH]2)cc1 |
| 107 to 108 °C | CCOc1ccc(S(=O)(=O)N2CCN(C)CC2)cc1C=O |
| 111 to 112 °C | CCOC(=O)CC1c2cc(OC)ccc2N(c2nc(Cl)nc3ccccc23)C1C (centres undefined) |
| 220 to 222 °C | Cc1ccn(-c2ccc(C(=O)N3Cc4cccnc4Oc4ccccc43)c(Cl)c2)n1 |
| > 300 °C | CC(=O)Nc1ccc2nc(-c3cc(C)c(OCCO)c(C)c3)[nH]c(=O)c2c1 |
| 134 °C | CCN(CC)C(=O)c1cc2cc(OC)c(OC)cc2c(-c2ccccc2)n1 |
| 251 to 253 °C | CCN1CCN(c2cc3c(cc2F)c(=O)c(C(=O)O)cn3CC)CC1 |
| 212 to 214 °C | CC12CCC(C1)C1(C)Oc3ccc(CCOc4ccc(C(=O)O)c(O)c4)cc3C21C (centres undefined) |
| 212 to 213 °C | CC(=O)N1c2cc(Cl)cc(Cl)c2C(=O)CC1C(=O)O (centres undefined) |
| 203 to 204 °C | COc1cc(C(=N)NO)ccc1-c1cc(-c2ccc(C(=N)NO)cc2OC)on1 |
| 145 to 146 °C | CCOC(=O)c1c(C)cc2c(c1C)c(=O)n(-c1ccccc1Cl)c(=O)n2CCCN(C)Cc1ccccc1 |
